In general, IC50 refers to the concentration that gives 50% inhibition.

This note sets out measurements from patent publication US20240368135A1 (VERTEX PHARMACEUTICALS INCORPORATED, priority 2021, published 2024).

One test deals with human NaV 1.8 (Homo sapiens, UniProt Q9Y5Y9). Put plainly: E-VIPR assay detecting and measuring NaV inhibition properties. Conditions: HEK cells expressing truncated human NaV 1.8; in the presence of human serum (compound numbers followed by *); read-out: IC50 in the E-VIPR Assay, performed in the presence of human serum. Format: cell-based. Put shortly: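 HEK cells expressing truncated, fully active human NaV1.8, with KIR2.1 BacMam co-transduction, were loaded with CC2-DMPE/DiSBAC6(3) voltage-sensing dyes for 20 min at room temperature. Compounds were tested in 11-point 3-fold dilutions (300 nM top final), optionally with 25% human serum, under electrical stimulation with FRET read-out.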
human NaV 1.8, sequence (Q9Y5Y9 126-399 limits assumed): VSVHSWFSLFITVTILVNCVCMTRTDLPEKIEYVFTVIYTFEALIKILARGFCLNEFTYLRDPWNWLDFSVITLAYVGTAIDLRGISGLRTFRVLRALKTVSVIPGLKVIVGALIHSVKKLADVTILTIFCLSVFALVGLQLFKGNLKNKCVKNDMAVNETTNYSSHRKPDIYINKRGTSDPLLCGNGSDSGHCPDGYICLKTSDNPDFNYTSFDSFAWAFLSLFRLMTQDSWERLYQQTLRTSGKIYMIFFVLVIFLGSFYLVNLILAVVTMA
human NaV 1.8, sequence (Q9Y5Y9 660-890 limits assumed): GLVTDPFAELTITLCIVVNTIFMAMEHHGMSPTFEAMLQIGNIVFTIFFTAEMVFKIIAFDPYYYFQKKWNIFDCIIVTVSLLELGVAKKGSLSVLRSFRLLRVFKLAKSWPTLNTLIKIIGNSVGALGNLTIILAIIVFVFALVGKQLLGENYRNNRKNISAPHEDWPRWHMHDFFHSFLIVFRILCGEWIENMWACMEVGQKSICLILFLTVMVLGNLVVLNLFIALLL
human NaV 1.8, sequence (Q9Y5Y9 1148-1722 limits assumed): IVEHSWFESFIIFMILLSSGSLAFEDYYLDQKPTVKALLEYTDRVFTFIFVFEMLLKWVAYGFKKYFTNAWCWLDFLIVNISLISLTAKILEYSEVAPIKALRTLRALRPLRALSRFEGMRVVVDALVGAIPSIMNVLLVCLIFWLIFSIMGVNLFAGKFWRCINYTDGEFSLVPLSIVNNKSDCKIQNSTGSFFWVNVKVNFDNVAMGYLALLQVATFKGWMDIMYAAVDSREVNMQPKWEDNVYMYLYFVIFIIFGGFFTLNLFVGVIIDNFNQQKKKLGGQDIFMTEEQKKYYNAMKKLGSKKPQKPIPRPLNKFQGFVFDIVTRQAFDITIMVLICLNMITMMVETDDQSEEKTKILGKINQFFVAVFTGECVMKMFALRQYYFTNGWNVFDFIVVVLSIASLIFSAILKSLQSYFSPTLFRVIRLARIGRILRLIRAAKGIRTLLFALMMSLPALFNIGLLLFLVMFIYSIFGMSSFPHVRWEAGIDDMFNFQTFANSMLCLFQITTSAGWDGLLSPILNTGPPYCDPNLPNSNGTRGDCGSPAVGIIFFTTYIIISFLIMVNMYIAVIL
As for `COc1c([C@H]2[C@H](C(=O)Nc3ccnc([S+](C)[O-])c3)O[C@@](C)(C(F)(F)F)[C@H]2C)ccc(F)c1F` (single isomer, unassigned) [Compound 9], the IC50 is below 10 nM.

For `COc1c([C@H]2C[C@@](C)(C(F)(F)F)O[C@@H]2C(=O)Nc2ccnc(C(O)CO)c2)ccc(F)c1C` (single isomer, unassigned) [Compound 705], the 50% inhibitory concentration (IC50) is at least 1000 nM.

As to `COc1c(C2CC(C)(C(F)(F)F)OC2C(=O)Nc2ccnc(C(O)C(C)O)c2)ccc(F)c1F` (single isomer, unassigned) [Compound 694], the half-maximal inhibitory concentration (IC50) fell in the range of 10 to 100 nM.

`COc1c([C@H]2[C@@H](C)[C@@H](C)O[C@@H]2C(=O)Nc2ccnc(C(O)CO)c2)ccc(F)c1F` (relative stereo) [Compound 719, rel-(2S,3R,4R,5R)-3-(3,4-difluoro-2-methoxyphenyl)-N-(2-(1,2-dihydroxyethyl)pyridin-4-yl)-4,5-dimethyltetrahydrofuran-2-carboxamide]: the IC50 was at least 1000 nM.

Regarding `COc1c([C@H]2C[C@@](C)(C(F)(F)F)O[C@@H]2C(=O)Nc2ccnc(C(O)CO)c2)ccc(F)c1F` (single isomer, unassigned) [Compound 686], the IC50 was at least 1000 nM.

On to `C[C@@H]1[C@H](c2ccc(F)c(F)c2OC(F)F)[C@@H](C(=O)Nc2ccnc(C(C)(C)O)c2)O[C@]1(C)C(F)(F)F` (single isomer, unassigned) [Compound 83], for which the IC50 is at least 1000 nM.

For `COc1c([C@H]2[C@H](C(=O)Nc3ccc4ncn(C)c4c3)O[C@@](C)(C(F)(F)F)[C@H]2C)ccc(F)c1F` [Compound 185, (2R,3S,4S,5R)-3-(3,4-difluoro-2-methoxyphenyl)-4,5-dimethyl-N-(1-methyl-1H-benzo[d]imidazol-6-yl)-5-(trifluoromethyl)tetrahydrofuran-2-carboxamide], the IC50 was at least 1000 nM.

Staying with this test, now noted: HEK cells expressing truncated human NaV 1.8; no human serum; read-out: IC50 in the E-VIPR Assay.
In the case of `COCC(C)(N)c1cc(NC(=O)[C@@H]2O[C@@](C)(C(F)(F)F)[C@@H](C)[C@H]2c2ccc(F)c(F)c2OC)c(F)cn1` (single isomer, unassigned) [Compound 354, rel-(2R*,3S*,4S*,5R*)-N-(2-(2-amino-1-methoxypropan-2-yl)-5-fluoropyridin-4-yl)-3-(3,4-difluoro-2-methoxyphenyl)-4,5-dimethyl-5-(trifluoromethyl)-tetrahydrofuran-2-carboxamide], the 50% inhibitory concentration (IC50) was below 10 nM.

Regarding `COc1c([C@H]2[C@H](C(=O)Nc3cc(N4C(=O)CN(C)C[C@H]4C)ncn3)O[C@@](C)(C(F)(F)F)[C@H]2C)ccc(F)c1F` [Compound 513], the IC50 lay within 10 to 100 nM.

For the compound `[2H]C([2H])([2H])Oc1c([C@H]2[C@H](C(=O)Nc3ccnc(N4C(=O)CN(C)C[C@H]4C)c3)O[C@@](C)(C(F)(F)F)[C@H]2C)ccc(F)c1F` [Compound 519, (2R,3S,4S,5R)-3-[3,4-difluoro-2-(trideuteriomethoxy)phenyl]-N-[2-[(2R)-2,4-dimethyl-6-oxo-piperazin-1-yl]-4-pyridyl]-4,5-dimethyl-5-(trifluoromethyl)tetrahydrofuran-2-carboxamide], the IC50 is below 10 nM.

With `CNC(=O)c1cn2cc(NC(=O)[C@@H]3O[C@@](C)(C(F)(F)F)[C@@H](C)[C@H]3c3ccc(F)c(F)c3OC)ccc2n1` [Compound 258, 6-((2R,3S,4S,5R)-3-(3,4-difluoro-2-methoxyphenyl)-4,5-dimethyl-5-(trifluoromethyl)tetrahydrofuran-2-carboxamido)-N-methylimidazo[1,2-a]pyridine-2-carboxamide], the half-inhibitory concentration (IC50) lay within 10 to 100 nM.

For `COc1c([C@@H]2C[C@](C)(C(F)(F)F)O[C@H]2C(=O)Nc2ccnc([C@H](O)CO)c2)ccc(F)c1C` (single isomer, unassigned) [Compound 704], the IC50 was in the range of 10 to 100 nM.

Consider `COc1c([C@@H]2[C@@H](C(=O)Nc3cnc(C(N)=O)nc3)O[C@](C)(C(F)(F)F)[C@@H]2C)ccc(F)c1C(F)F` (stereo in doubt) [Compound 172, rel-5((2S,3R,4R,5S)-3-(3-(difluoromethyl)-4-fluoro-2-methoxy-phenyl)-4,5-dimethyl-5-(trifluoromethyl)tetrahydrofuran-2-carboxamido)pyrimidine-2-carboxamide], for which the IC50 was at least 1000 nM.

For `COc1c([C@H]2[C@H](C(=O)Nc3cn(C[C@@H](O)CO)nc3C)O[C@@](C)(C(F)(F)F)[C@H]2C)ccc(F)c1F` [Compound 201, (2R,3S,4S,5R)-3-(3,4-difluoro-2-methoxyphenyl)-N-(1-((R)-2,3-dihydroxypropyl)-3-methyl-1H-pyrazol-4-yl)-4,5-dimethyl-5-(trifluoromethyl)tetrahydrofuran-2-carboxamide], the IC50 is below 10 nM.

As for `COc1c([C@H]2[C@H](C(=O)Nc3ncn(C)c3C)O[C@@](C)(C(F)(F)F)[C@H]2C)ccc(F)c1F` [Compound 322, (2R,3S,4S,5R)-3-(3,4-difluoro-2-methoxyphenyl)-N-(1,5-dimethyl-1H-imidazol-4-yl)-4,5-dimethyl-5-(trifluoromethyl)-tetrahydrofuran-2-carboxamide], the IC50 was at least 1000 nM.

For the compound `COCCNCc1cc(NC(=O)C2OC(C)(C(F)(F)F)C(C)C2c2ccc(F)c(F)c2OC)ccn1` (stereo not drawn) [Compound 59, 3-(3,4-difluoro-2-methoxy-phenyl)-N-[2-[(2-methoxyethylamino)methyl]-4-pyridyl]-4,5-dimethyl-5-(trifluoromethyl)tetrahydrofuran-2-carboxamide], the IC50 is at least 1000 nM.

With `COCC(C)(C)NCc1cc(NC(=O)[C@@H]2O[C@@](C)(C(F)(F)F)[C@@H](C)[C@H]2c2ccc(F)c(F)c2OC)ccn1` [Compound 410, (2R,3S,4S,5R)-3-(3,4-difluoro-2-methoxyphenyl)-N-(2-(((1-methoxy-2-methylpropan-2-yl)amino)methyl)-pyridin-4-yl)-4,5-dimethyl-5-(trifluoromethyl)-tetrahydrofuran-2-carboxamide], the IC50 fell in the range of 10 to 100 nM.

As for `COc1c([C@H]2[C@H](C(=O)Nc3ccnc(CN[C@@H]4CCOC4)c3)O[C@@](C)(C(F)(F)F)[C@H]2C)ccc(F)c1F` [Compound 23], the IC50 was below 10 nM.

As to `Cc1nn(CCO)cc1NC(=O)[C@@H]1O[C@@](C)(C(F)(F)F)[C@@H](C)[C@H]1c1ccc(F)c(F)c1OC(F)F` (single isomer, unassigned) [Compound 76], the concentration for half-maximal inhibition (IC50) was in the range of 10 to 100 nM.

Turning to `COc1c([C@H]2[C@H](C(=O)Nc3ccnc(N4C[C@@H](C)NCC4=O)c3)O[C@@](C)(C(F)(F)F)[C@H]2C)ccc(F)c1F` [Compound 480, (2R,3S,4S,5R)-3-(3,4-difluoro-2-methoxyphenyl)-4,5-dimethyl-N-(2-((R)-5-methyl-2-oxopiperazin-1-yl)pyridin-4-yl)-5-(trifluoromethyl)tetrahydrofuran-2-carboxamide], the IC50 was below 10 nM.

As to `COc1c([C@H]2[C@H](C(=O)Nc3ccnc(O[C@H]4COC[C@H]4O)n3)O[C@@](C)(C(F)(F)F)[C@H]2C)ccc(F)c1F` (single isomer, unassigned) [Compound 242, rel-(2R*,3S*,4S*,5R*)-3-(3,4-difluoro-2-methoxyphenyl)-N-(2-(((3S,4R)-4-hydroxytetrahydrofuran-3-yl)oxy)pyrimidin-4-yl)-4,5-dimethyl-5-(trifluoromethyl)tetrahydrofuran-2-carboxamide], the 50% inhibitory concentration (IC50) is 10 to 100 nM.

For the compound `CCOc1c([C@H]2[C@H](C(=O)Nc3ccn4nnnc4c3)O[C@@](C)(C(F)(F)F)[C@H]2C)ccc(F)c1C` (stereo in doubt) [Compound 123, rel-(2R,3S,4S,5R)-3-(2-ethoxy-4-fluoro-3-methylphenyl)-4,5-dimethyl-N-(tetrazolo[1,5-a]pyridin-7-yl)-5-(trifluoromethyl)tetrahydrofuran-2-carboxamide], the IC50 is below 10 nM.

Regarding `COc1c([C@H]2[C@H](C(=O)Nc3ncc(O)cn3)O[C@@](C)(C(F)(F)F)[C@H]2C)ccc(F)c1F` [Compound 444, (2R,3S,4S,5R)-3-(3,4-difluoro-2-methoxy-phenyl)-N-(5-hydroxypyrimidin-2-yl)-4,5-dimethyl-5-(trifluoromethyl)tetrahydrofuran-2-carboxamide], the IC50 was 100 to 1000 nM.

As for `C[C@H]1[C@@H](c2ccc(F)c(F)c2OCCO)[C@H](C(=O)Nc2cnn(C)c(=O)c2)O[C@@]1(C)C(F)(F)F` [Compound 568, (2R,3S,4S,5R)-3-(3,4-difluoro-2-(2-hydroxyethoxy)phenyl)-4,5-dimethyl-N-(1-methyl-6-oxo-1,6-dihydropyridazin-4-yl)-5-(trifluoromethyl)tetrahydrofuran-2-carboxamide], the IC50 was 10 to 100 nM.

Consider `[2H]C([2H])([2H])Oc1c([C@H]2[C@H](C(=O)Nc3ccnc(N4CCNCC4=O)c3)O[C@@](C)(C(F)(F)F)[C@H]2C)ccc(F)c1F` [Compound 515, (2R,3S,4S,5R)-3-[3,4-difluoro-2-(trideuteriomethoxy)phenyl]-4,5-dimethyl-N-[2-(2-oxopiperazin-1-yl)-4-pyridyl]-5-(trifluoromethyl)tetrahydrofuran-2-carboxamide], for which the IC50 lay within 10 to 100 nM.

For the compound `COc1c([C@H]2[C@H](C(=O)Nc3ccnc(N(C)C(=O)CN(C)C)c3)O[C@@](C)(C(F)(F)F)[C@H]2C)ccc(F)c1F` [Compound 522, (2R,3S,4S,5R)-3-(3,4-difluoro-2-methoxy-phenyl)-N-[2-[[2-(dimethylamino)acetyl]-methyl-amino]-4-pyridyl]-4,5-dimethyl-5-(trifluoromethyl)tetrahydrofuran-2-carboxamide], the IC50 is below 10 nM.

Take `COc1c([C@H]2[C@H](C(=O)Nc3ccnc(OC4CCN(C)C4=O)c3)O[C@@](C)(C(F)(F)F)[C@H]2C)ccc(F)c1F` (single isomer, unassigned) [Compound 197, rel-(2R*,3S*,4S*,5R*)-3-(3,4-difluoro-2-methoxyphenyl)-4,5-dimethyl-N-(2-((1-methyl-2-oxopyrrolidin-3-yl)oxy)pyridin-4-yl)-5-(trifluoromethyl)tetrahydrofuran-2-carboxamide]: the IC50 is below 10 nM.
